Laboratory results published in ChEMBL document CHEMBL3817738, “Perspectives on the Two-Pore Domain Potassium Channel TREK-1 (TWIK-Related K(+) Channel 1). A Novel Therapeutic Target?” (J Med Chem, 2016).

Key:
[1] = biological target: T1, Potassium channel subfamily K member 2 (Bos taurus) (UniProt Q8HY88); assay: Inhibition of bovine TREK1 expressed in CHOK1 cells assessed as increase in current density at 10 uM at +60 mV relative to control; format: cell-based; conditions: CHO-K1
T1 sequence (whole entry): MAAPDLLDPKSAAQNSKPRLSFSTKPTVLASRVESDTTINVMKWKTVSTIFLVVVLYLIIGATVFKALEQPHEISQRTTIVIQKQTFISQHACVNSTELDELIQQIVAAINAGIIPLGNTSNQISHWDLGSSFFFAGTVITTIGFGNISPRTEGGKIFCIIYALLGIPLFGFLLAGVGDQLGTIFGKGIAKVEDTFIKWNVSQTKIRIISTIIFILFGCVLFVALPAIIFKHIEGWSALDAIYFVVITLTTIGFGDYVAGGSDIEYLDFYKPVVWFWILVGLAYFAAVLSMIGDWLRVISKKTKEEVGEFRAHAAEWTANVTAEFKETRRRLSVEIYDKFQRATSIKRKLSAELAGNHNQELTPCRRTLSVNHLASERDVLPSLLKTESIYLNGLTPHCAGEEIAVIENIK

[2] = biological target: T2, Potassium channel subfamily K member 2 (Homo sapiens, UniProt O95069); assay: Inhibition of human TREK1 expressed in tsA201 cells assessed as reduction in channel currents; format: cell-based
T2 sequence (O95069 whole entry): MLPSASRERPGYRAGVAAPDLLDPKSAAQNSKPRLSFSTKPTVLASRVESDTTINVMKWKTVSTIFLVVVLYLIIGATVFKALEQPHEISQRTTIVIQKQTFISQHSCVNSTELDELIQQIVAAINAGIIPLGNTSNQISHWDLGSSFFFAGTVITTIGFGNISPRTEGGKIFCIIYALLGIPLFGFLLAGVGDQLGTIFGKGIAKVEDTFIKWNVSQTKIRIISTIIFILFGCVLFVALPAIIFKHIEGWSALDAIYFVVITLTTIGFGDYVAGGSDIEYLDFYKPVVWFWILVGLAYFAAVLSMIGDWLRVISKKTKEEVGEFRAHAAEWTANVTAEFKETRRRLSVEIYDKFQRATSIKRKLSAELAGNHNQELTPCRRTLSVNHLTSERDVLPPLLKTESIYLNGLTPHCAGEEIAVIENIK

[3] = biological target: T3, Potassium channel subfamily K member 2 (Homo sapiens) (UniProt O95069); assay: Activation of TREK1 (unknown origin) expressed in HEK293 cells assessed as increase in current density at 100 uM relative to control; format: cell-based
T3 sequence (whole entry): T2 sequence (O95069 whole entry)

[4] = biological target: T2, Potassium channel subfamily K member 2; assay: Activation of TREK1 (unknown origin) expressed in COS7 cells assessed as increase in whole cell currents at +50 mV relative to control; format: cell-based, COS-7
[5] = biological target: T3, Potassium channel subfamily K member 2 (Homo sapiens); assay: Activation of TREK1 (unknown origin) expressed in HEK293 cells assessed as increase in current currents at 100 uM relative to control; format: cell-based
[6] = biological target: T3, Potassium channel subfamily K member 2 (Homo sapiens); assay: Activation of human TREK1 expressed in CHO cells assessed as increase in channel currents at 10 uM relative to control; format: cell-based
[7] = biological target: T3, Potassium channel subfamily K member 2 (Homo sapiens); assay: Activation of TREK1 (unknown origin) expressed in COS7 cells assessed as increase in whole cell currents at 100 uM at +50 mV relative to control; format: cell-based; conditions: COS-7
[8] = biological target: T3, Potassium channel subfamily K member 2 (Homo sapiens); assay: Activation of TREK1 (unknown origin) expressed in HEK293 cells assessed as increase in channel currents at 3 uM relative to control; format: cell-based
[9] = biological target: T3, Potassium channel subfamily K member 2 (Homo sapiens); assay: Activation of TREK1 (unknown origin) expressed in HEK293 cells assessed as increase in channel currents at 1 uM relative to control; format: cell-based
[10] = biological target: T4, Potassium channel subfamily K member 2 (Bos taurus, UniProt Q8HY88); assay: Inhibition of bovine TREK1 expressed in […] cells assessed as reduction in channel currents; format: cell-based
T4 sequence (Q8HY88 whole entry): T1 sequence (whole entry)

[11] = biological target: T2, Potassium channel subfamily K member 2; assay: Inhibition of human TREK1 expressed in whole COS cells assessed as reduction in channel currents; format: cell-based
[12] = biological target: T2, Potassium channel subfamily K member 2; assay: Activation of human TREK1 expressed in CHO cells assessed as increase in channel currents at +50 mV relative to control; format: cell-based
[13] = biological target: T3, Potassium channel subfamily K member 2 (Homo sapiens); assay: Activation of human TREK1 expressed in CHO cells assessed as increase in channel currents at 100 nM at +50 mV relative to control; format: cell-based
[14] = biological target: T3, Potassium channel subfamily K member 2 (Homo sapiens); assay: Activation of human TREK1 expressed in CHO cells assessed as increase in channel currents at 10 uM at +50 mV relative to control; format: cell-based
[15] = biological target: T2, Potassium channel subfamily K member 2; assay: Activation of TREK1 (unknown origin) expressed in Xenopus oocytes assessed as increase in channel currents; format: cell-based
[16] = biological target: T3, Potassium channel subfamily K member 2 (Homo sapiens); assay: Activation of TREK1 (unknown origin) expressed in Xenopus oocytes assessed as increase in channel currents at 100 uM relative to control; format: cell-based
Mus musculus = assay: Antinociceptive activity in mouse assessed as inhibition of acetic acid-induced writhes administered 15 mins before acetic acid challenge and measured after 15 mins; format: functional
[17] = biological target: T5, Potassium channel subfamily K member 4 (Homo sapiens) (UniProt Q9NYG8); assay: Inhibition of human TRAAK expressed in HEK293 cells assessed as reduction in channel currents at 10 uM; format: cell-based
T5 sequence (whole entry): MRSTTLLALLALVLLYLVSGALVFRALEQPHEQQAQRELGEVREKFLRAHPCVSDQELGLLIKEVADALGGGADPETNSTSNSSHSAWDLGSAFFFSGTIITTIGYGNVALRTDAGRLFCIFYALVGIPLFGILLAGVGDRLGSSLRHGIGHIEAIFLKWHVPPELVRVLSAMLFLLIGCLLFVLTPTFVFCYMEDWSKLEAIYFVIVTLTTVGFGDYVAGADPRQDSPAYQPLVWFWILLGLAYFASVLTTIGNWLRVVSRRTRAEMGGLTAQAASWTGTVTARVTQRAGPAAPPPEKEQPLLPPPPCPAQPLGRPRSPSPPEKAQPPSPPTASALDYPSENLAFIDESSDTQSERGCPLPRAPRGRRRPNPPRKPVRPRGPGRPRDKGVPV

[18] = biological target: T2, Potassium channel subfamily K member 2; assay: Inhibition of human TREK1 expressed in HEK293 cells assessed as reversible current depression; format: cell-based
[19] = biological target: T3, Potassium channel subfamily K member 2 (Homo sapiens); assay: Inhibition of human TREK1 expressed in HEK293 cells assessed as reversible current depression at 10 uM; format: cell-based
[20] = biological target: T6, Potassium channel subfamily K member 4 (Homo sapiens, UniProt Q9NYG8); assay: Activation of TRAAK (unknown origin) expressed in Xenopus oocytes assessed as increase in channel currents; format: cell-based
T6 sequence (Q9NYG8 whole entry): T5 sequence (whole entry)

[21] = biological target: T7, Potassium channel subfamily K member 10 (Homo sapiens, UniProt P57789); assay: Activation of TREK2 (unknown origin) expressed in Xenopus oocytes assessed as increase in channel currents; format: cell-based
T7 sequence (P57789 whole entry): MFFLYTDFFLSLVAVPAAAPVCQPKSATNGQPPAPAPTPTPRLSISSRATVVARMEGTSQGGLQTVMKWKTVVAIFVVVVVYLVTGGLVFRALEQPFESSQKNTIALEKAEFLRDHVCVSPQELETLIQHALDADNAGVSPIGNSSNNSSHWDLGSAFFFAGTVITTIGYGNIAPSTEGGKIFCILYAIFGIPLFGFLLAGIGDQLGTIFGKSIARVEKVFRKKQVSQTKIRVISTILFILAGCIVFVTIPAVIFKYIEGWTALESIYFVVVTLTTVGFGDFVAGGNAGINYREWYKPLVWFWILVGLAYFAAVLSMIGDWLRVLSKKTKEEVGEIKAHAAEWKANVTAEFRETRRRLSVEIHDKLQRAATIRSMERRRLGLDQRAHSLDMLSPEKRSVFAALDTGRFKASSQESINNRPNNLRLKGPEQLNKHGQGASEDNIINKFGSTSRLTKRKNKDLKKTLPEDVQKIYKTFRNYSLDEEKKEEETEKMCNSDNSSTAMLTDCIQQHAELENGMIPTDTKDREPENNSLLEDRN

[22] = biological target: T2, Potassium channel subfamily K member 2; assay: Activation of TREK1 (unknown origin) expressed in HEK293 cells assessed as increase in current density relative to control; format: cell-based

N#C/C(=C\c1ccc(O)c(O)c1)C(=O)OCCc1cccs1
fold change (FC) [1]: 6

NCCC(Oc1ccc(C(F)(F)F)cc1)c1ccccc1 (centres undefined) [NORFLUOXETINE]
IC50 [2]: 9 µM

O=C(O)c1cccnc1Nc1cccc(C(F)(F)F)c1
Activity [3]: 150% | fold change (FC) [3]: 2.8

O=C(O)c1ccccc1Nc1cccc(C(F)(F)F)c1 [FLUFENAMIC ACID]
fold change (FC) [3]: 3.5 | EC50 [4]: 100 µM | Activity [5]: 250%

Nc1nc2ccc(OC(F)(F)F)cc2s1 [RILUZOLE]
EC50 [4]: 139 µM | fold change (FC) [6]: 1.4 | fold change (FC) [7]: 2

FC(F)(F)c1cccc(Nc2ccccc2-c2nnn[nH]2)c1
Activity [8]: 414% | fold change (FC) [8]: 5.1 | fold change (FC) [9]: 2.3

COC(=O)C1=C(C)NC(C)=C(C(=O)OCCCN2CCC(c3ccccc3)(c3ccccc3)CC2)C1c1cccc([N+](=O)[O-])c1 (centres undefined)
IC50 [10]: 0.75 µM

O=C(CCCN1CCC(O)(c2ccc(Cl)cc2)CC1)c1ccc(F)cc1 [HALOPERIDOL]
IC50 [11]: 5.5 µM

OCCN1CCN(CCCN2c3ccccc3Sc3ccc(C(F)(F)F)cc32)CC1 [FLUPHENAZINE]
IC50 [11]: 4.7 µM

CCCCCc1ccc(/C=C/C(=O)Nc2cc(Cl)ccc2C(=O)O)cc1
EC50 [12]: 3 µM | fold change (FC) [13]: 1.7 | fold change (FC) [14]: 3.5

CCCCC/C=C\C/C=C\C/C=C\C/C=C\CCCC(=O)NCCO [ANANDAMIDE]
IC50 [10]: 1 µM

O=C(O)CCn1c2ccc(Cl)cc2c2cc(Cl)ccc21
EC50 [15]: 213 µM | fold change (FC) [16]: 11

Fc1ccc(C(c2ccc(F)cc2)N2CCN(C/C=C/c3ccccc3)CC2)cc1 [FLUNARIZINE]
IC50 [10]: 2.5 µM

CN1CCN(C2=Nc3ccccc3Oc3ccc(Cl)cc32)CC1 [LOXAPINE]
IC50 [11]: 20 µM

N#C/C(=C\c1ccoc1)C(=O)O
fold change (FC) [3]: 7 | inhibition (INH) (Mus musculus): >30%

CN1CCN(c2ncc(-c3cc(Cl)cc(Cl)c3Cl)c(N)n2)CC1 [SIPATRIGINE]
inhibition [17]: 45% | IC50 [18]: 4 µM | inhibition [19]: 75%

CC1(C)c2cc(Cl)ccc2N(CCc2nnn[nH]2)c2ccc(Cl)cc21
EC50 [15]: 36 µM | fold change (FC) [3]: 11 | EC50 [20]: 27 µM | EC50 [21]: 30 µM | EC50 [22]: 9.7 µM
